Laboratory results published in patent publication US20230076977A1, “UTROPHIN UPREGULATION COMPOUNDS FOR DUCHENNE MUSCULAR DYSTROPHY THERAPY” (THE TRUSTEES OF THE UNIVERSITY OF PENNSYLVANIA, priority 2020, published 2023).
Like-named read-outs stand apart in the source and are kept apart here. Starred links: 1 amine or outer side, 2 acyl side, 3 side chain; linkers in the order of their positions; H or OH if unused. Positions of bridges follow the written chain, without caps; N, C: chain ends. Non-standard residues stand in square brackets, D forms with d. Residues, ends and D or L forms follow the SMILES beside them. Chains are numbered I, II in the order given. Hexamethylenediamine = C(CCCN[*:2])CCN[*:1]; Dip = N[C@H](C(=O)O)C(c1ccccc1)c1ccccc1; Chg = N[C@H](C(=O)O)C1CCCCC1; NMeA = CN[C@@H](C)C(=O)O

What was measured:
Format in all cases: cell-based
[1] = system: utrophin protein in C2C12 cells; assay: Utrophin western blot in C2C12 cells (endogenous protein expression); conditions: for utrophin protein levels in a separate assay (data not shown): hits with H2LPS equal to 0; for Utrophin protein levels, fold increase: 1 μM, 24 hours, normalized to tubulin, vs 0.1% DMSO control
Description: The 10 highest scoring hits were selected from this subset for performing in vitro validation. C2C12 cells were treated with 1 μM concentrations of the selected hits for 24 hours, followed by western blot evaluation of utrophin levels as an orthogonal assay for endogenous protein expression. […] Panobinostat, an FDA-approved non-selective HDAC inhibitor for cancer treatment, increased utrophin levels by 1.9-fold. […] AR-42 (S2244), another HDAC inhibitor with proven preclinical efficacy in contrasting cancer-induced cachexia, increased utrophin by 2.3-fold and had the second highest H2LPS. Consistent with the calculated HPS, the highest scoring hit, TSA (S1045), had also the highest magnitude of protein upregulation (3.9-fold) followed by PCI-24781 (S1090; 3.7-fold). Importantly, high H2LPS was generally correlated with confirmation in WB assays (FIG. 2E).
Total RNA was extracted from TA muscle samples with RNAeasy kit (Qiagen, USA) and reverse transcribed with random hexamers. qPCR was performed using Taqman probes for Utrophin (Assay ID Mm01168846_ml) and β-actin. Muscle tissue samples were lysed with TNEC buffer (50 mM Tris-HCl, pH 8.0; 150 mMNaCl; 1% NP40; 2 mM EDTA) buffer containing complete protease inhibitor cocktail (Roche, Basel, Switzerland). C2C12 cells were treated for 24 h with 1 μM concentrations of compounds from a fresh batch (3 wells for each compound), and cell samples were lysed with RIPA buffer with protease inhibitor cocktail. The experiment was repeated three independent times. 50-75 μg of total proteins from muscle tissues, or 4 μg of cell protein extracts, were resolved on a 3-8% Tris-Acetate gradient gel (NuPage; Invitrogen), transferred to PDVF or nitrocellulose membranes and mouse monoclonal anti-utrophin antibody MANCHO3 clone 8A4 (developed by Glenn E. Morris and obtained from the Developmental Studies Hybridoma Bank, Iowa) or a custom-made anti-UtrophinA rabbit polyclonal antibody (muscle tissue samples) generated and described previously by Chakkalakal et al., Nucleic Acids Res. 36, 826-838 (2008), which is incorporated herein by reference in its entirety.
TSA is a broad-spectrum HDAC inhibitor. […] To further validate in vitro the dose-dependent capacity of TSA to upregulate utrophin protein, C2C12 cells were treated for 24 hours with increasing concentrations of TSA (from 1 nM to 10 μM) (FIG. 3B). Consistent with the single-dose western blot validation experiments, utrophin protein levels were increased 4.3 times by 1 μM TSA. […] Some cytotoxicity was evident for TSA concentrations higher than 1 μM.

[2] = system: 5′- and 3′-UTRs of human utrophin; assay: Screening assay: C2C12 stable reporter line, CMV-driven luciferase flanked by utrophin 5′ and 3′ UTRs; conditions: for Upper-lower limits scoren: difference between upper and lower boundaries of the fitted dose-response screening curve; for Fold diff: fold difference between the EC50s of screening and counterscreening
Description: (§1) The construct for the HTS assay was generated by cloning the 5′- and 3′-UTRs of human utrophin into pGL4:50-hygro (Promega, Madison, Wis.) at the 5′ and 3′ of the luciferase coding sequence and has been described previously by Moorwood. […] For the counterscreening assay, the pGL4:50-hygro plasmid was used alone. Low passage C2C12 cells obtained from ATCC were transfected with either constructs, stably selected with 500 μg/mL hygromycin and subcloned using two rounds of serial dilutions to isolate single cell-derived colonies in a 96 wells plate format. […] The selected clones were cultured in presence of 100 μg/mL hygromycin B and were transferred to the HTS Facility at the University of Pennsylvania for implementation into a 384-wells format suitable for HTS.
(§2) The construct for generating the screening C2C12 cell line carrying the 5′ and 3′UTR of the human utrophin gene is described by Moorwood. […] Some compounds could increase light emission independently from the 5′ and 3′UTR regions, i.e., by activating the CMV promoter or increasing overall mRNA synthesis. Therefore, in order to distinguish such compounds, a counterscreening cell line stably expressing only the CMV-driven luciferase gene was generated (FIG. 1A). To determine optimal conditions for the implementation in a 384-wells high-throughput format, evaluated were DMSO tolerance, optimal cell density and incubation time (FIG. 5A-5C).
(§3) A first criterion for evaluating the performance of the selected hits was whether their activity was dose-dependent. After performing a dose-response analysis (5 nM to 10 μM) of each hit in the screening cell line, a clustering approach was applied (complete linkage with Euclidean distance measurement) to highlight similarities between compounds profiles. […] By modeling each dose-response trace with a 4-parameter logistic model applied to the Z— score values (FIG. 2B), the EC50 of each molecule was calculated.
(§4) Cells were allowed to attach overnight at 37° C., 5% CO2 in a humidified chamber. […] Compounds were added to a final concentration of 1 μM and 100 nM in 0.2% DMSO. Columns 1 and 23 were treated with 0.2% DMSO (negative control). Columns 2 and 24 were treated with 100 nM Panobinostat (positive control). Cells were incubated for 24 hours at 37° C., 5% CO2. […] Luminescence was measured on an EnVisionXcite Multilabel Plate Reader (PerkinElmer), using ultrasensitive luminescence measurement technology.

[3] = system: CMV-driven luciferase gene; assay: Counterscreening assay: C2C12 line stably expressing only the CMV-driven luciferase gene; conditions: for luciferase activity in the counterscreening assay: dose-response 5 nM to 10 μM, FIG. 6
Description: as §1, §2, §3, §4

[4] = C2C12, 4-parameter logistic fit of Z-scores, 24 h, no unit in table (0.013 = 13 nM), read-out: EC50 screen
[5] = C2C12, read-out: EC50 score (1 to 4)
[6] = 4-parameter logistic fit of Z-scores, 24 h, no unit in table (0.013 = 13 nM), read-out: EC50 screen

| Molecule | EC50 [2, 4] [nM] | EC50 [2, 5] [nM] | Upper-lower limits scoren [2] | Fold diff [2] | other results |
| --- | --- | --- | --- | --- | --- |
| O=C(/C=C/c1ccc(CN(CCO)CCc2c[nH]c3ccccc23)cc1)NO [LAQ824, Dacinostat] | – | – | – | – | utrophin protein levels in a separate assay (data not shown) [1]: failed to increase utrophin protein levels |
| Cn1cc(CNCC2CCN(c3ncc(C(=O)NO)cn3)CC2)c2ccccc21 [Quisinostat] | – | – | – | – | utrophin protein levels in a separate assay (data not shown) [1]: failed to increase utrophin protein levels |
| O=C1Cc2c([nH]c3ccc(Br)cc23)-c2ccccc2N1 [Kenpaullone] | 34 | < 50 | 12.92 | 6.97 | – |
| CN[C@@H](C)C(=O)N[C@H](C(=O)N1CCC[C@H]1C(=O)N[C@H](C(=O)NCCCCCCNC(=O)[C@@H](NC(=O)[C@@H]1CCCN1C(=O)[C@@H](NC(=O)[C@H](C)NC)C1CCCCC1)C(c1ccccc1)c1ccccc1)C(c1ccccc1)c1ccccc1)C1CCCCC1 [BV-6] (I: H-[NMeA][Chg]P[Dip] / II: H-[NMeA][Chg]P[Dip]; linker I:C-II:C via Hexamethylenediamine) | – | – | 7.00 | High | EC50 [2, 6]: 99 nM |
| Cc1cc(C)cc(C(=O)NOCCCCCC(=O)NO)c1 [LMK-235] | 683 | 100 to 1000 | 43.40 | High | – |
| CC(=O)O/N=C1/C(=C2/C(=O)Nc3cc(Br)ccc32)Nc2ccccc21 [BIO-acetoxime] | – | – | 13.04 | 0.65 | EC50 [2, 6]: 330 nM |
| COc1ccc(-c2nc(N3CCOCC3)c3sc(CN(C)c4ncc(C(=O)NO)cn4)cc3n2)cn1 [CUDC-907] | – | < 50 | – | – | luciferase activity in the counterscreening assay [3]: significant luciferase activity |
| CN(C)c1ccc(C(=O)NCCCCCCC(=O)NO)cc1 [M344] | – | – | 74.15 | 2.54 | EC50 [2, 6]: 3220 nM |
| CCCCc1nc2cc(/C=C/C(=O)NO)ccc2n1CCN(CC)CC [Pracinostat] | 558 | 100 to 1000 | 56.37 | 59.25 | – |
| CCN(CC)Cc1ccc2cc(COC(=O)Nc3ccc(C(=O)NO)cc3)ccc2c1 [Givinostat] | 269 | 100 to 1000 | 46.59 | 18.69 | Utrophin protein levels, fold increase [1]: 2.2 fold |
| O=C(CCCCCN1C(=O)c2cccc3cccc(c23)C1=O)NO [Scriptaid] | 2440 | > 1000 | 62.01 | High | – |
| C#Cc1cccc(Nc2ncnc3cc(OC)c(OCCCCCCC(=O)NO)cc23)c1 [CUDC-101] | 1990 | > 1000 | 34.34 | High | – |
| CC(C)[C@H](C(=O)Nc1ccc(C(=O)NO)cc1)c1ccccc1 [AR-42] | 369 | 100 to 1000 | 59.94 | 14.72 | Utrophin protein levels, fold increase [1]: 2.3 fold |
| CC(C)Oc1ccc2c(=O)c(-c3ccccc3)coc2c1 [ipriflavone] | – | < 50 | – | – | – |
| Abexinostat [PCI-24781] | – | – | 44.18 | 33.72 | EC50 [2, 6]: 138 nM; Utrophin protein levels, fold increase [1]: 3.7 fold |
| O=C1Nc2cc(Br)ccc2/C1=C1/Nc2ccccc2/C1=N\O [BIO] | – | – | 12 | – | – |
| Cc1cc(O)c(-c2ccc([C@@H](C)CN)cc2)c2c1[nH]c(=O)c1sccc12.Cl [OTS514 hydrochloride] | – | – | – | – | utrophin protein levels in a separate assay (data not shown) [1]: failed to increase utrophin protein levels |
| O=C(/C=C/c1cccc(S(=O)(=O)Nc2ccccc2)c1)NO [Belinostat] | 342 | 100 to 1000 | 43.41 | High | – |
| Panobinostat | – | – | 22.06 | 9.21 | increase over the basal signal, counterscreening ([3]; FIG. 8, Panobinostat-treated vs untreated): 100 fold; signal (S), counterscreening ([3]; FIG. 8, basal about 400 RLUs): 25-40,000 RLUs; luciferase activity in the counterscreening assay [3]: significant luciferase activity; EC50 [2, 6]: 13 nM; increase of signal activity over basal signal, primary screening ([2]; FIG. 8, Panobinostat-treated vs untreated stable C2C12 cells): 4-6 fold; signal (S), primary screening ([2]; FIG. 8, basal about 20,000 RLUs): about 100,000 RLUs; activity in library screen (threshold 22.07% NPAc) ([2]; screened at 0.1 μM and 1 μM, 24 h): active at both concentrations; Utrophin protein levels, fold increase [1]: 1.9 fold |
